According to BindingDB's records for doi:10.1021/jm0203130 (Merck Research Laboratories, 2002):

Target: Integrin alpha-IIb/beta-3 (Homo sapiens, UniProt P08514+P05106)
Assay: Inhibition of integrin alphaIIb-beta3 in platelet aggregation assay

Chain of Integrin alpha-IIb/beta-3 (P05106 27-788 limits assumed): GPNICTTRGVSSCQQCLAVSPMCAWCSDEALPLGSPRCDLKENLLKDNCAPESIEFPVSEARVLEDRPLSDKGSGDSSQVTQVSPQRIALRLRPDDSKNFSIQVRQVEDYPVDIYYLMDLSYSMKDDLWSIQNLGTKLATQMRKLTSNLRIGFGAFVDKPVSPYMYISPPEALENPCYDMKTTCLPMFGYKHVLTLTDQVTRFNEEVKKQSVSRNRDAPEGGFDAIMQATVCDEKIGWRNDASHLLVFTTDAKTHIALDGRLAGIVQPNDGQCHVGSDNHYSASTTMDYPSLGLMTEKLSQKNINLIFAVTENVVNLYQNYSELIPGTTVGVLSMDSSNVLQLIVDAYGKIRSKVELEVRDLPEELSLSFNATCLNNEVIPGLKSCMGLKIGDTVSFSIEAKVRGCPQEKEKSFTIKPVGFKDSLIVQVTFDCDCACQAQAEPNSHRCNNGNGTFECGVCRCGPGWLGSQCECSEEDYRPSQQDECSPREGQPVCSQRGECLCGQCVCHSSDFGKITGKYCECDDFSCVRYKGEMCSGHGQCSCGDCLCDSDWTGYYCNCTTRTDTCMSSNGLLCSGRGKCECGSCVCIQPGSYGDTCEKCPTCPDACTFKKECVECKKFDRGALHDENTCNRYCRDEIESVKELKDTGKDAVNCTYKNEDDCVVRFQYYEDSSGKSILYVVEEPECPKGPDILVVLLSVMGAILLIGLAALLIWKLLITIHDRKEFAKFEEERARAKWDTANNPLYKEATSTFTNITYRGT
Chain of Integrin alpha-IIb/beta-3 (P08514 32-887 limits assumed): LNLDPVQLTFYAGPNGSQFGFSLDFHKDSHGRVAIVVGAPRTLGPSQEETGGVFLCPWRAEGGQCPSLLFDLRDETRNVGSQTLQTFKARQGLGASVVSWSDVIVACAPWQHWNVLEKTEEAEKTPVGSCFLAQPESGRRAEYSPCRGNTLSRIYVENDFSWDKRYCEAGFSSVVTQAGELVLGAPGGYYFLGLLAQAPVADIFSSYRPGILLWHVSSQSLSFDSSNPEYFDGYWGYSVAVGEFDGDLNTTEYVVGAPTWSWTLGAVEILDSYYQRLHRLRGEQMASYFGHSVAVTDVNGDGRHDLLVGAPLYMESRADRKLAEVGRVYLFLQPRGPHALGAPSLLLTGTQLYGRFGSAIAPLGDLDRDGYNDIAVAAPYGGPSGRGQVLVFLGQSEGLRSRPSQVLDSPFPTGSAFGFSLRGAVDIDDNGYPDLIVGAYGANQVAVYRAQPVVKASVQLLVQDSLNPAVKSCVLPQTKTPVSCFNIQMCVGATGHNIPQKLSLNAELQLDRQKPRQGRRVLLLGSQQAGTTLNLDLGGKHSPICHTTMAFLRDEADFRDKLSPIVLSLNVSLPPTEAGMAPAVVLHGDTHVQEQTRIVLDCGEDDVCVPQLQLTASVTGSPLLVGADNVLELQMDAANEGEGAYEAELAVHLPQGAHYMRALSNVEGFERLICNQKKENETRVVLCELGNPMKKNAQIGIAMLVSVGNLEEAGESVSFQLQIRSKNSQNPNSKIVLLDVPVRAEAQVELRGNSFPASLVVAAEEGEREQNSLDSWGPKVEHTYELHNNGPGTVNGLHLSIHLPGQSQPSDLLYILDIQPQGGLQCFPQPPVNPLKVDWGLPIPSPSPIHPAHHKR
Chain of Integrin alpha-IIb/beta-3 (P08514 891-1039 limits assumed): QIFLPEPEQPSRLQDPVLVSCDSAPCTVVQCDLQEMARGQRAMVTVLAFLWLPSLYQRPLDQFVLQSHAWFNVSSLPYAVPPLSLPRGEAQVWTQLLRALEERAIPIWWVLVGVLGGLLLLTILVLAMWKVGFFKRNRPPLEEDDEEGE

Row | Structure (SMILES) | IC50
1 | O=C(NC[C@H](NS(=O)(=O)c1ccccc1)C(=O)O)c1ccc(CCc2ccc3c(n2)NCCC3)cc1 [2-Benzenesulfonylamino-3-{4-[2-(5,6,7,8-tetrahydro-[1,8]naphthyridin-2-yl)-ethyl]-benzoylamino}-propionic acid] | 0.26 µM
2 | O=C(O)C[C@H](NC(=O)CN1CCC(CCc2ccc3c(n2)NCCC3)C1=O)c1cccnc1 (some centres not stated) [3-(2-{2-Oxo-3-[2-(5,6,7,8-tetrahydro-[1,8]naphthyridin-2-yl)-ethyl]-pyrrolidin-1-yl}-acetylamino)-3-pyridin-3-yl-propionic acid] | > 10 µM
3 | O=C(O)C[C@H](NC(=O)CN1CCC(CCc2ccc3c(n2)NCCC3)C1=O)c1cnc2ccccc2c1 (some centres not stated) [3-(2-{2-Oxo-3-[2-(5,6,7,8-tetrahydro-[1,8]naphthyridin-2-yl)-ethyl]-pyrrolidin-1-yl}-acetylamino)-3-quinolin-3-yl-propionic acid] | 0.776 µM
4 | O=C(O)CCNC(=O)CNC(=O)CCCc1ccc2c(n1)NCCC2 [3-[2-(4-5,6,7,8-Tetrahydro-[1,8]naphthyridin-2-yl-butyrylamino)-acetylamino]-propionic acid] | > 10 µM
5 | Nc1cccc(CCc2ccc(C(=O)NC[C@H](NS(=O)(=O)c3ccc(I)cc3)C(=O)O)cc2)n1 [3-{4-[2-(6-Amino-pyridin-2-yl)-ethyl]-benzoylamino}-2-(4-iodo-benzenesulfonylamino)-propionic acid] | 1.6 µM
6 | O=C(O)C[C@H](NC(=O)CNC(=O)CCCc1ccc2c(n1)NCCC2)c1cccnc1 [(S)-3-Pyridin-3-yl-3-[2-(4-5,6,7,8-tetrahydro-[1,8]naphthyridin-2-yl-butyrylamino)-acetylamino]-propionic acid] | > 10 µM
7 | CNc1cccc(CCOc2ccc3c(c2)CN(CC(F)(F)F)C(=O)[C@H](CC(=O)O)C3)n1 [[(S)-8-[2-(6-Methylamino-pyridin-2-yl)-ethoxy]-3-oxo-2-(2,2,2-trifluoro-ethyl)-2,3,4,5-tetrahydro-1H-benzo[c]azepin-4-yl]-acetic acid] | > 10 µM
